This is an account of results in patent US20210301038A1, “POLYSIALIC ACID AND DERIVATIVES THEREOF, PHARMACEUTICAL COMPOSITION AND METHOD OF PRODUCING POLYSIALIC ACID” (Medizinische Hochschule Hannover (MHH), priority 2018, published 2021).

The test system of experiment [1] is mPFC slices of AAV-GFP-Tau[R406W] infected mice. Nature of the experiment: mPFC LTP in mice overexpressing GFP-Tau[R406W]. The experiment is classed as cell-based, mouse. The note with it: bath application of 0.3 μM DP12; 50-60 min after induction. As to the method: Prefrontal slices (400 μm) were transferred to a submerged-type recording MC membrane chamber (volume 2 ml; Scientific Systems Design Inc., Mississauga, Ontario, Canada) perfused with oxygenated recording ACSF at a flow rate of 4 ml/min and maintained at room temperature (22-25° C.), unless stated otherwise in the “Results”-section given below. Field EPSPs were evoked and recorded using thin-walled glass electrodes (borosilicate glass, wall thickness 0.188, length 100, and outer diameter 1.5 mm, Hilgenberg, Malsfeld, Germany) filled with recording aCSF in 400 μm-thick mPFC slices. […]
Before LTP induction, basal synaptic transmission was recorded in each slice and the relationship between stimulus intensity and fEPSP slope was measured. […] The supramaximal slope was determined by gradually increasing the stimulation intensity until a population spike in the fEPSP became first visible. […]
LTP was induced by application of five trains of theta-burst stimulation (TBS) with an inter-theta-train interval of 20 s (Brennaman et al., 2011). […] For calculation of the LTP level, the mean fEPSP slope was measured between 50-60 min after TBS delivery, and it was then normalized to mean baseline fEPSP slope during 0-10 min before TBS. Stimulus artifacts in representative fEPSP examples in figures were blanked to facilitate the perception of fEPSPs recorded in the mPFC. […]

Experiment [2] has as its system AAV-GFP-Tau[R406W]-injected mice. Nature of the experiment: Recency test in AAV-GFP-Tau[R406W]-injected mice. The experiment is classed as in vivo, mouse. As to conditions: intranasal delivery. From the text:
AAVs were produced using the AAV helper free packaging systems AAV-DJ (Cell Biolabs, Inc.). In short, HEK293 cells were transfected with the pAAV-DJ and pHelper constructs along with the viral expression constructs (pAAV vectors) encoding either eGFP or eGFP-Tau[R406W] under the control of a synapsin promotor. After three days, viruses were harvested using freeze-thaw cycles. After lysis, non-viral DNA is digested with Benzonase, and lysate is filtered through a 0.22 μm filter, washed with PBS and concentrated using Amicon Ultra-15 Centrifugal Filter Units with a cut off of 50 kDa. Titers were determined to be >10^10 GC/ml using quantitative Real-Time PCR with primers for the WPRE element in the viral genome.
For stereotaxic delivery of AAVs, mice were anesthetized in a closed chamber using isoflurane (1 ml for 30 s). […]
Animals were randomly assigned to treatment groups using a randomized block design to counterbalance differences in age. […] Novelty detection was evaluated by calculating the discrimination ratio as follows: [novel object time−familiar object time]/[novel object time+familiar object time]×100%. In the recency test, the discrimination ratio was calculated as follows: [least recent object time−most recent object time]/[least object time+most recent object time]×100%. […]

Experiment [3] deals with CA3-CA1 synapses in slices from 5×FAD mice. The experiment is described as follows: LTP in CA3-CA1 synapses in slices from 5×FAD mice. As to conditions: bath application 1 μg/ml (approx. 0.3 μM). The experiment is classed as cell-based, mouse. How it is done: LTP was induced by application of five trains of theta-burst stimulation (TBS) with an inter-theta-train interval of 20 s (Brennaman et al., 2011). Each train consisted of 8 bursts delivered at 5 Hz. Each burst consisted of four pulses delivered at 100 Hz. Duration of pulses was 0.2 ms. For calculation of the LTP level, the mean fEPSP slope was measured between 50-60 min after TBS delivery, and it was then normalized to mean baseline fEPSP slope during 0-10 min before TBS. Stimulus artifacts in representative fEPSP examples in figures were blanked to facilitate the perception of fEPSPs recorded in the mPFC. Recording and analysis of LTP in St8Sia4^−/− mice was performed in a blind manner.
Finally, we tested if DP12 would have an effect in the 5×FAD mouse model of AD associated with amyloidosis and upregulation of extracellular glutamate and signaling through extra synaptic GluN2B receptors. Using a special slice incubation chamber with improved oxygen supply, we were able to induce LTP in CA3-CA1 synapses in slices from 5×FAD mice (FIG. 8).

The test system of experiment [4] is 5×FAD mice. Nature of the experiment: Recency test (increased difficulty) in 5×FAD mice. The experiment is classed as in vivo, mouse. The note with it: intranasal, 0.5 mg/kg DP12 or equimolar. As to the method:
The recency test comprised of two encoding phases followed by a retrieval phase (modified from Nelson et al., 2011). The interval between the encoding phases was 1 h, and the interval between the second encoding phase and the retrieval phase was 10 min, except for experiments in 5×FAD mice when both intervals were 90 min to make the task more difficult. In the first encoding phase, animals were placed into the open field arena and allowed to explore a pair of identical objects for 10 min. Then, a different pair of identical objects was presented in the second encoding phase (10 min total exploration time). During the retrieval phase, two different objects, one object from each encoding phase, were placed into the apparatus and animals were given 10 min to explore them.
Animals were randomly assigned to treatment groups using a randomized block design to counterbalance differences in age. The time of the day when tests were performed for different animals was also counterbalanced between treatment groups using a randomized block design. All measurements and statistical analyses were performed performed blindly, i.e. the tubes containing drugs/vehicle were coded. Exploration was defined as the animal approaching the object at a distance of less than 2 cm. The animal climbing onto the object with both hind- and forelimbs was not considered as exploration. In the same trial, objects were counterbalanced, and between trials, the placements of novel and familiar objects were changed. The objects used in the novel object recognition test were not employed in the recency test. Novelty detection was evaluated by calculating the discrimination ratio as follows: [novel object time−familiar object time]/[novel object time+familiar object time]×100%. In the recency test, the discrimination ratio was calculated as follows: [least recent object time−most recent object time]/[least object time+most recent object time]×100%. Unreliable measurements (about 10%), when animals spent in total ≤10 s near to both objects, were excluded from analysis.
As the recency test was consistently used for analysis of DP12 effects in other mouse models, it was further investigated whether 13- to 14-month-old 5×FAD mice are impaired in this form of memory. In this series of experiments, the intervals between each session during recency test were increased to 90 min to increase the difficulty to recall the temporal order of the two objects shown in the arena (FIG. 12(A)). […] To verify whether DP12 or avDP10-9OAc may improve cognitive function in the 5×FAD model of AD, these compounds or a vehicle (H2O) were intranasally delivered in the same cohort of 5×FAD mice before multiple recency test sessions (separated by 4 day-interval). The numbers of mice in each treatment group during one session were counterbalanced and each mouse received in a random order both drugs and the vehicle. […] In contrast, vehicle-treated 5×FAD mice explored the two objects equally (FIG. 12(C)).

Setting [5] is: 2 hours before test, 90 min intervals.

As to (α(2→8)Neu5Ac)12 [DP12], the “rescue of impaired mPFC LTP” value in experiment [1] was “fully rescue LTP”. Also, the “rescue of impaired recent object recognition” value in experiment [2] is given as “fully rescued”. For the same substance, the “LTP levels 50-60 min after theta-burst stimulation” value in experiment [3] was “strongly increased”. In experiment [4] (setting [5]), the “exploration of least recent versus most recent object in the retrieval phase” value is on record as “clear preference for the least recently explored object” and the “object discrimination (discrimination ratio) compared to vehicle” value is on record as “significant difference in object discrimination”. In addition, in experiment [4] (n=11 5×FAD mice), the “number of mice showing discrimination more than 20%” value is 10 of 11.
